Each structure is given as a SMILES string. Active and inactive are the calls of the source. How the calls were made is not given here. Where only a bound is given, the exact number is not on record here.

Sequence of Serine/threonine-protein kinase mTOR (Homo sapiens) (P42345 2015-2114): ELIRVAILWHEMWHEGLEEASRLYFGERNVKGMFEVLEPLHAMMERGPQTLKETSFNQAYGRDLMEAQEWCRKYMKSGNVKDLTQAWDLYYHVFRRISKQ

This experiment has as its target Serine/threonine-protein kinase mTOR (Homo sapiens) (UniProt P42345). Description: mTOR FRB domain ligand binding – biophysical, NMR (AID 1648). The conditions noted are these: NMR binding to FRB domain, chemical shift.
As for `CCOC(=O)c1cnc2cc(C)nn2c1C`, the Kd was > 4 mM (inactive).

For `O=S1(=O)CCC(NC(=S)Nc2ccccc2)C1` (centres undefined), the Kd is > 4 mM (inactive).

Turning to `COc1cccc(NC(=O)c2ocnc2C)c1`, the Kd was > 4 mM (inactive).

As for `Cc1ccc(NC(=O)CN2C(=O)CSC2=O)cc1`, the Kd is > 4 mM (inactive).

In the case of `c1ccc(-c2noc(-c3ccc4c(c3)OCO4)n2)nc1`, the Kd was > 4 mM (inactive).

Consider `NN1C(=O)CSC1=Nc1ccccc1`, for which the Kd is > 4 mM (inactive).

Regarding `NC(=O)CC1Sc2ccccc2NC1=O` (centres undefined), the Kd is > 4 mM (inactive).

For the molecule `c1ccc2[nH]c(NCCN3CCOCC3)nc2c1`, the Kd is > 4 mM (inactive).

As for `O=c1cc(-c2ccccc2)oc2cc(O)c(O)c(O)c12`, the Kd is > 4 mM (inactive).

For the molecule `Cn1ccnc1SCc1cc(=O)[nH]c2ccccc12`, the Kd is > 4 mM (inactive).

In the case of `c1ccc(NCc2nc(-c3ccccc3)no2)cc1`, the Kd is > 4 mM (inactive).

Take `CSc1ccn(CCC(=O)O)c(=O)n1`: the Kd is > 4 mM (inactive).

Take `CC(=O)OC1CCC23CC1(C)CCC2C(C)(C)CC3OC(C)=O` (centres undefined): the Kd is > 4 mM (inactive).

For the molecule `Nc1c(/C=C2\C=Nc3ccccc32)c(=O)nc2scnn12`, the Kd was > 4 mM (inactive).

In the case of `C=C[C@](C)(O)CCC=C(C)C`, the Kd is > 4 mM (inactive).

As to `Cc1ccc(/C=N/n2c(C)nnc2C)cc1`, the Kd was > 4 mM (inactive).

Take `CC(=O)Oc1ccc2c(c1OC(C)=O)OCC1(O)Cc3c(cc(OC(C)=O)c(OC(C)=O)c3OC(C)=O)C21` (centres undefined): the Kd is > 4 mM (inactive).

`CSc1nc(=O)[nH]c2c1CCC2`: the Kd was > 4 mM (inactive).

As for `O=C(c1nc2ccccc2s1)N1CCSCC1`, the Kd was > 4 mM (inactive).

Consider `COc1ccc(NC(=O)C2CC(=O)N=C(N)S2)cc1` (centres undefined), for which the Kd was > 4 mM (inactive).

On to `CC1=C(/C=C/C(C)=C/C=C/C(C)=C/CO)C(C)(C)CCC1`, for which the Kd was > 4 mM (inactive).

With `O=C(NCCO)c1ccccc1I`, the Kd is > 4 mM (inactive).

On to `CC(=O)NS(=O)(=O)c1ccc(C)cc1`, for which the Kd is > 4 mM (inactive).

For `Cn1c(NCc2ccco2)nc2ccccc21`, the Kd is > 4 mM (inactive).

`CC12CCC3C(CC3(C)C)C(C)(CCC1=O)O2` (centres undefined): the Kd is > 4 mM (inactive).

Consider `CN1CN/C(=N\[N+](=O)[O-])N(c2ccccc2)C1`, for which the Kd is > 4 mM (inactive).

Consider `NCc1cn2ccccc2n1`, for which the Kd is > 4 mM (inactive).

As to `CN(C)CCCN1CNC(=S)NC1`, the Kd was > 4 mM (inactive).

As for `CC(=O)Nc1ccc2c(c1)CCCC2=O`, the Kd was > 4 mM (inactive).

For the molecule `O=C(Nc1ccc2c(c1)OCCO2)c1ccncc1`, the Kd was > 4 mM (inactive).

`OC1CCN(c2nccc(C(F)(F)F)n2)CC1`: the Kd is > 4 mM (inactive).

As for `Cc1[nH]c2ccccc2c1CN(C)C`, the Kd was > 4 mM (inactive).

As to `O=C(O)CCCN1CNC(=S)NC1`, the Kd is > 4 mM (inactive).

Turning to `CC(=O)O[C@H]1CC[C@@]2(C)C(CC[C@]3(C)C2C(=O)C=C2C4[C@@H](C)[C@H](C)CC[C@]4(C(=O)O)CC[C@]23C)C1(C)C` (some centres undefined), the Kd was > 4 mM (inactive).

On to `COc1ccc(C[C@H]2NC[C@H](O)[C@H]2OC(C)=O)cc1`, for which the Kd was > 4 mM (inactive).

Regarding `CC1(C)CC(=O)c2sc(N)nc2C1`, the Kd was > 4 mM (inactive).

In the case of `CC1(C)CC2C1CCC1(C)OC2(C)CCC1O` (centres undefined), the Kd is > 4 mM (inactive).

As to `O=C(N1CCOCC1)N1CCN(c2ccccn2)CC1`, the Kd is > 4 mM (inactive).

Take `COc1cc(-c2coc3cc(OCc4ccccc4)c(OC)c(O)c3c2=O)cc(O)c1OC`: the Kd was > 4 mM (inactive).

Take `O=S(=O)(Cc1ccccc1Cl)Nc1ccccn1`: the Kd is > 4 mM (inactive).

Turning to `O=S(=O)(c1ccc(F)c(Cl)c1)N1CCCC1`, the Kd was > 4 mM (inactive).

On to `CCSc1nc(N)c(NC(=O)c2ccco2)c(=O)[nH]1`, for which the Kd was > 4 mM (inactive).

Consider `c1ccc(-n2nnnc2-n2cnc3ccccc32)cc1`, for which the Kd was > 4 mM (inactive).

In the case of `O=C(c1cnsn1)N1CCN(c2ccccn2)CC1`, the Kd was > 4 mM (inactive).

In the case of `COc1ccc(N2CC(=O)NC2=O)cc1`, the Kd is > 4 mM (inactive).

Turning to `CC(C)=CCOc1c2occc2cc2ccc(=O)oc12`, the Kd was > 4 mM (inactive).

Take `O=C1C2CC=C(Cl)CC2C(=O)N1c1ccccc1O` (centres undefined): the Kd was > 4 mM (inactive).

For the molecule `O=C(O)C1CCN(S(=O)(=O)c2cccs2)CC1`, the Kd was > 4 mM (inactive).

Regarding `CSc1nc(NC(C)(C)C)nc(N2CCOCC2)n1`, the Kd is > 4 mM (inactive).

For the molecule `Cn1c2ccccc2n2c(=S)[nH]nc12`, the Kd is > 4 mM (inactive).

Take `O=C(c1cccnc1Cl)N1CCOCC1`: the Kd was > 4 mM (inactive).

`Cn1ccc(NC(=S)NC2CCCC2)n1`: the Kd is > 4 mM (inactive).

Take `OC1CCN(Cc2ccc[nH]2)CC1`: the Kd is > 4 mM (inactive).

Regarding `NC(=O)c1ccc(NC(=O)c2ccco2)cc1`, the Kd is > 4 mM (inactive).

In the case of `CC(=O)Nc1cccc(-c2nc3ccccc3c(=O)o2)c1`, the Kd was > 4 mM (inactive).

Take `Cc1nc2ccc(C(=O)O)cc2[nH]1`: the Kd was > 4 mM (inactive).

Consider `Cc1occc1C(=O)Nc1nnc(C2CCCCC2)s1`, for which the Kd is > 4 mM (inactive).

On to `O=C(O)CN(CCCc1ccccc1)CC(=O)O`, for which the Kd was > 4 mM (inactive).

As for `CCN1CCC2(CC1)CC1CC3C=CC1(CN2C(C)=O)O3` (centres undefined), the Kd was > 4 mM (inactive).

`NCCN=C1NS(=O)(=O)c2ccccc21`: the Kd is > 4 mM (inactive).

Regarding `Cc1cc(C)c(C#N)c(N2CCCC2)n1`, the Kd is > 4 mM (inactive).

For the molecule `COC(=O)C[C@H]1C2(C)CC34OC5(C)O[C@@]6([C@H](OC)C(OC(=O)C(C)C)[C@]7(C)C(/C(=C(/OC)C(C)C)C(=O)O[C@H]7c7ccoc7)[C@@]6(O5)[C@H](OC)[C@@]3(OC)C2OC(C)=O)[C@]14C` (some centres undefined), the Kd is > 4 mM (inactive).

In the case of `Nc1ccnc(C(=O)O)c1`, the Kd was > 4 mM (inactive).

Take `CN1CCCC1C(=O)O` (centres undefined): the Kd was > 4 mM (inactive).

Consider `Cc1ccccc1NC(=O)CC1SC(N)=NC1=O` (centres undefined), for which the Kd is > 4 mM (inactive).

On to `c1cc2c(cc1[C@H]1OC[C@H]3[C@@H]1CO[C@H]3c1ccc3c(c1)OCO3)OCO2`, for which the Kd was > 4 mM (inactive).

As to `CC(=O)NC(=S)Nc1cccc(C(=O)O)c1C`, the Kd was > 4 mM (inactive).

`OC[C@@H]1CCCN2CCCC[C@H]12`: the Kd is > 4 mM (inactive).

Consider `Cc1oc(-c2ccccc2)cc1CO`, for which the Kd is > 4 mM (inactive).

Regarding `COC(=O)Nc1nc2c(C)cccc2s1`, the Kd is > 4 mM (inactive).

Consider `O=C(c1ccccc1)N1CCN(c2ccccc2F)CC1`, for which the Kd was > 4 mM (inactive).

For the molecule `Nc1nc2c3ccccc3nc(Cc3ccccc3)n2n1`, the Kd was > 4 mM (inactive).

Turning to `Cn1nc(-c2cccs2)cc1N`, the Kd was > 4 mM (inactive).

Take `CC1=C(C(=O)Nc2ccccc2)SCCO1`: the Kd is > 4 mM (inactive).

As for `C[C@@H]1C(=O)O[C@H]2[C@H]1CC[C@@]1(C)C=CC(=O)[C@@]3(C)O[C@@]213`, the Kd was > 4 mM (inactive).

As for `CN1C2CC3C[C@H]1C(O3)C2O` (some centres undefined), the Kd is > 4 mM (inactive).

Turning to `O=C(O)c1cc(=O)c2cccc(O)c2[nH]1`, the Kd was > 4 mM (inactive).

Consider `CC1(C)N=C2C(=N)C=CC=C2N1O`, for which the Kd is > 4 mM (inactive).

As for `CC(C)(C)c1cc(CN)c(C(=O)O)o1`, the Kd was > 4 mM (inactive).

In the case of `CC(=O)O[C@@H]1C[C@@]2(C)[C@H](c3ccoc3)C[C@H]3O[C@]32[C@]2(C)C(=O)C(O)=C3C(C)(C)C(=O)C=C[C@]3(C)C12` (some centres undefined), the Kd is > 4 mM (inactive).

Consider `CNc1ccccc1C(=O)O`, for which the Kd is > 4 mM (inactive).

For `Nc1ccc2c(c1)COc1ccccc1O2`, the Kd was > 4 mM (inactive).

Take `O=C1CNC(=O)N1Cc1ccc(Br)cc1`: the Kd was > 4 mM (inactive).

For the molecule `O=C(O)c1snnc1-c1ccccc1`, the Kd was > 4 mM (inactive).

Take `C=C1C2=CC(=O)O[C@@H](c3ccoc3)[C@]2(C)CCC1[C@@]1(C)C=CC(=O)C(C)(C)[C@@H]1CC(=O)OC` (some centres undefined): the Kd is > 4 mM (inactive).

Regarding `c1ccc2c(c1)nnn2C1CCNCC1`, the Kd was > 4 mM (inactive).

As to `COc1ccccc1NC(=O)NC(N)=O`, the Kd was > 4 mM (inactive).

Turning to `NC(=O)CC1Nc2cccc3cccc(c23)NC1=O` (centres undefined), the Kd was > 4 mM (inactive).

In the case of `CC(=O)N1CCN(c2ccc(N)cc2)CC1`, the Kd was > 4 mM (inactive).

With `CC(=O)NC(=S)Nc1ccccc1C(N)=O`, the Kd is > 4 mM (inactive).

Turning to `O=S1(=O)C=C(Nc2ccccc2)CC1`, the Kd was > 4 mM (inactive).

For the molecule `CNC(=S)Nc1cccc(C(=O)O)c1`, the Kd is > 4 mM (inactive).

As to `O=C(Nc1ccncc1)c1cncc(Br)c1`, the Kd is > 4 mM (inactive).

Turning to `CN1CCC(NC(=O)c2c(F)cccc2Cl)CC1`, the Kd was > 4 mM (inactive).

In the case of `O=C(O)c1ccc(Nc2nncc(=O)[nH]2)cc1`, the Kd is > 4 mM (inactive).

Regarding `Cc1cc(=O)n2ncn(Cc3ccccc3)c2n1`, the Kd is > 4 mM (inactive).

With `O=C(O)CNC(=O)c1ccccc1Cl`, the Kd is > 4 mM (inactive).

On to `CC(=O)Oc1ccc(O)cc1`, for which the Kd is > 4 mM (inactive).

In the case of `COc1c(O)cc(O)cc1O`, the Kd is > 4 mM (inactive).

Turning to `O=C(c1ccc(N2CCNCC2)cc1)c1cccnc1`, the Kd is > 4 mM (inactive).

For the molecule `NC(N)=NOCC[C@H](N)C(=O)O`, the Kd was > 4 mM (inactive).

Turning to `Cc1noc(C)c1C(=O)N1CCN(c2ncccn2)CC1`, the Kd is > 4 mM (inactive).

As for `O=C1Nc2ccccc2C1(O)Cc1ccncc1` (centres undefined), the Kd was > 4 mM (inactive).

Take `Cc1nc(-c2ccccc2)ncc1CO`: the Kd was > 4 mM (inactive).
